This is an account of results in patent US9840509B2, “Heterocyclic compounds” (CADILA HEALTHCARE LIMITED, priority 2014, dated 2017).

The target of data set [1] is T1, CYP 2C19 (Homo sapiens, UniProt P33261).
T1 construct: from tissue; host or cells: human liver microsomes
Kind of data set: CYP inhibition in human liver microsomes, 2C19. The data set is classed as in vitro ADME. To be noted: pH 7.4, @ 10 μM concn. The gist of the method: (§1)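 Human liver microsomes in 100 mM phosphate pH 7.4 with CYP-specific probe substrate were incubated with test compound at […] and 10 μM, started with 1 mM NADPH at 37° C. Reactions were stopped with acetonitrile, and marker-reaction metabolites were quantified by LC-MS/MS. Final solvent was ≤0.2%.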
(In general: Liver microsomes are vesicles of endoplasmic reticulum, rich in cytochrome P450 enzymes.)

Data set [2] deals with T2, CYP 1A2 (Homo sapiens, UniProt P05177).
T2 construct: from tissue; host or cells: human liver microsomes
T2 sequence (P05177 1-516): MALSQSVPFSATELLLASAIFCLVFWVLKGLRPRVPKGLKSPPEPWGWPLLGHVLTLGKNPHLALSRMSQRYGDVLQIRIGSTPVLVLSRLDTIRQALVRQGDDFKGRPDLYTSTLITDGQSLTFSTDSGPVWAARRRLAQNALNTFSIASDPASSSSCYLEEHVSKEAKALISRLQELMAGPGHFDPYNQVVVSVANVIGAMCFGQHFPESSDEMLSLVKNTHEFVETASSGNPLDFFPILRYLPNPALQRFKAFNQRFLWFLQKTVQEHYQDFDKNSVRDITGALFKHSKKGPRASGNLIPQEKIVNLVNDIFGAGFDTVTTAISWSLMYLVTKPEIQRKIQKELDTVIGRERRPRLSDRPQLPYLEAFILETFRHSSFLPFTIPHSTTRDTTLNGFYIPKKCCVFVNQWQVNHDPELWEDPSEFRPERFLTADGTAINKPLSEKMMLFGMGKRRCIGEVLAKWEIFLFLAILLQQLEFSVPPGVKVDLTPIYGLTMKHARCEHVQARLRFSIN
Kind of data set: CYP inhibition in human liver microsomes, 1A2. The data set is classed as in vitro ADME. To be noted: pH 7.4, @ 10 μM concn. The gist of the method:
as §1

The target of data set [3] is T3, CYP 2C8 (Homo sapiens, UniProt P10632).
T3 construct: from tissue; host or cells: human liver microsomes
T3 sequence (P10632 1-490): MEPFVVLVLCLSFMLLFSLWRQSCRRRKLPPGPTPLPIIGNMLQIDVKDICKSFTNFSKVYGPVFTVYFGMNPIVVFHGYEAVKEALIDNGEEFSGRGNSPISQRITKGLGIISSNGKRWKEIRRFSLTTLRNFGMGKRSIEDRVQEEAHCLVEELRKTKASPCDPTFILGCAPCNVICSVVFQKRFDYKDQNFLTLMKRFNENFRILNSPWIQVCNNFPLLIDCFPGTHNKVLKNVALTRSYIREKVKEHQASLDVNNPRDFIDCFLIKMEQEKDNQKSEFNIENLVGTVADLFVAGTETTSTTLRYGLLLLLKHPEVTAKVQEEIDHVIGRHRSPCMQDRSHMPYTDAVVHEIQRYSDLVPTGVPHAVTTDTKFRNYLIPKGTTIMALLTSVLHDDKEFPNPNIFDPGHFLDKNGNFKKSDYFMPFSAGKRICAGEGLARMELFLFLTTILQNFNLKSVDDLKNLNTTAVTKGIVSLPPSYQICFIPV
Description: CYP inhibition in human liver microsomes, 2C8. The data set is classed as in vitro ADME. To be noted: pH 7.4, @ 10 μM concn. In short, it runs like this:
as §1

Data set [4] deals with T4, CYP 2C9 (Homo sapiens, UniProt P11712).
T4 construct: from tissue; host or cells: human liver microsomes
T4 sequence (P11712 whole entry): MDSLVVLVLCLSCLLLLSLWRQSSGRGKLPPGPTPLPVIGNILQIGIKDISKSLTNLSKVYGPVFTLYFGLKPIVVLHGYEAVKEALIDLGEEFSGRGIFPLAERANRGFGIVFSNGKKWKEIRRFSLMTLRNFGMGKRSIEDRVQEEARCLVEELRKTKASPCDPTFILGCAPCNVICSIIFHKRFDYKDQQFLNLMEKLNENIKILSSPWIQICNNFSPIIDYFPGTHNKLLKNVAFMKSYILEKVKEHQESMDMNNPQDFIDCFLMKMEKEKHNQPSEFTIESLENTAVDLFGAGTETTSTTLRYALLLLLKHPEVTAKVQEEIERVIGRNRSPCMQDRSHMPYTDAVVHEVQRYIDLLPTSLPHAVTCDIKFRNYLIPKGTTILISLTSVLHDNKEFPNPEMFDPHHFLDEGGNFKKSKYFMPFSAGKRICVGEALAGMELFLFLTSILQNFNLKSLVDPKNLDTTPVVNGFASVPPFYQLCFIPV
Description: CYP inhibition in human liver microsomes, 2C9. The data set is classed as in vitro ADME. The following applies: pH 7.4, @ 10 μM concn. In short, it runs like this: as §1

Data set [5] concerns the target T5, recombinant purified human BTK (Homo sapiens, UniProt Q06187).
T5 construct: purchased SignalChem, USA
Description: In vitro BTK kinase assay on ADP Glo platform. The data set is classed as biochemical. The following applies: 2 hr room temperature, read-out: In-vitro BTK inhibitory activity: IC50. In short, it runs like this:
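Recombinant human BTK (3 ng/reaction) with compound dilutions in Tris pH 7.5, MgCl2/MnCl2, BSA, DTT; started with 50 µM ATP (final) and polyGln4Tyr1 substrate, 2 h at room temperature. ADP formed detected by ADP-Glo luminescence; IC50 by nonlinear fit versus uninhibited enzyme as 100%.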
Background: In ADP-Glo the light output rises with the ADP produced.

The target of data set [6] is T6, CYP 2D6 (Homo sapiens, UniProt P10635).
T6 construct: from tissue; host or cells: human liver microsomes
T6 sequence (P10635 whole entry): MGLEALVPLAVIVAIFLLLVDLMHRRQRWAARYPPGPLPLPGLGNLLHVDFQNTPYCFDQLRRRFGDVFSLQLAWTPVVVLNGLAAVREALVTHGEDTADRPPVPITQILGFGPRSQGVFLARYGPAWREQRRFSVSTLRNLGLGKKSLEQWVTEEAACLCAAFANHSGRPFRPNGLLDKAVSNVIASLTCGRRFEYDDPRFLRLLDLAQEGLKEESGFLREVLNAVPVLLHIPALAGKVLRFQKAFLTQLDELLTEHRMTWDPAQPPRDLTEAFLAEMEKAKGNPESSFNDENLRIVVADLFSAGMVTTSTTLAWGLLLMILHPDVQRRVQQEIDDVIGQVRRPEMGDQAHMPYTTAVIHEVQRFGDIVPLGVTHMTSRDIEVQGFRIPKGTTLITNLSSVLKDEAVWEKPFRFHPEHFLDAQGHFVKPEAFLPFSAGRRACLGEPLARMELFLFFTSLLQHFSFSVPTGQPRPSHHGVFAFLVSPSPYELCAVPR
Kind of data set: CYP inhibition in human liver microsomes, 2D6. The data set is classed as in vitro ADME. To be noted: pH 7.4, @ 10 μM concn. The gist of the method:
as §1

Data set [7] addresses T7, CYP 3A4 (Homo sapiens, UniProt P08684).
T7 construct: from tissue; host or cells: human liver microsomes
Description: CYP inhibition in human liver microsomes, 3A4. The data set is classed as in vitro ADME. The following applies: pH 7.4, @ 10 μM concn. In short, it runs like this:
as §1

pIC50: −log10 of the molar value.

T5 sequence (Q06187 whole entry): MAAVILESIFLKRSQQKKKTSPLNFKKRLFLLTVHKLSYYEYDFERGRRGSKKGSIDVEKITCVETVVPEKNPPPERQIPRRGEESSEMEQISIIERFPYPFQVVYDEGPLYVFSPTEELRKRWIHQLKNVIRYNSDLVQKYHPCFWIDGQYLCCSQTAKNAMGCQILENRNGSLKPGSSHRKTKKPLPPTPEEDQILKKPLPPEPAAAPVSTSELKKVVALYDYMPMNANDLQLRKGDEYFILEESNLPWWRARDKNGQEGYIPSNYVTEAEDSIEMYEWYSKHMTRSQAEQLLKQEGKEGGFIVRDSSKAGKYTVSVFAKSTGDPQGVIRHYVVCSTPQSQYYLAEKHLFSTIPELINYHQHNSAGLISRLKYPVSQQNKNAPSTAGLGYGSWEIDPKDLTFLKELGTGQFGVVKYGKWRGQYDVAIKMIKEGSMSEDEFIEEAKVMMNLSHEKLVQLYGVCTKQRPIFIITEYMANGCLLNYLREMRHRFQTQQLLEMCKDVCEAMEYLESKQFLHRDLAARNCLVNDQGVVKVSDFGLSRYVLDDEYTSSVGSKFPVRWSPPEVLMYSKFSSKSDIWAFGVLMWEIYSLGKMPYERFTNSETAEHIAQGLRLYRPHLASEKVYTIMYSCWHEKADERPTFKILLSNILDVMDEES
T7 sequence (P08684 whole entry): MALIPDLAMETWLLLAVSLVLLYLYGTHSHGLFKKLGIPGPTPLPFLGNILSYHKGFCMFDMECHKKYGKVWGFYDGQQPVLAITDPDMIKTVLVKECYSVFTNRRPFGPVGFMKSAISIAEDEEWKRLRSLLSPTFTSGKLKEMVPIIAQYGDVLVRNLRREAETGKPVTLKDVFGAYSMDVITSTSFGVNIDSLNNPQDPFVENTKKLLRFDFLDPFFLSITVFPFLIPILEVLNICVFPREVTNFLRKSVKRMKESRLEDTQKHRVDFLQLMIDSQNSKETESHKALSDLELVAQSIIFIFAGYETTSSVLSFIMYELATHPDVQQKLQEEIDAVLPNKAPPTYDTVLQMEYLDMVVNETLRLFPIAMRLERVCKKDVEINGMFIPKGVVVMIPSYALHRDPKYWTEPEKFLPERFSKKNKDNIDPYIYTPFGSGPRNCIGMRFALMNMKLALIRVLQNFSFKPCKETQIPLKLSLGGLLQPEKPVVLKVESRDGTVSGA
T1 sequence (P33261 whole entry): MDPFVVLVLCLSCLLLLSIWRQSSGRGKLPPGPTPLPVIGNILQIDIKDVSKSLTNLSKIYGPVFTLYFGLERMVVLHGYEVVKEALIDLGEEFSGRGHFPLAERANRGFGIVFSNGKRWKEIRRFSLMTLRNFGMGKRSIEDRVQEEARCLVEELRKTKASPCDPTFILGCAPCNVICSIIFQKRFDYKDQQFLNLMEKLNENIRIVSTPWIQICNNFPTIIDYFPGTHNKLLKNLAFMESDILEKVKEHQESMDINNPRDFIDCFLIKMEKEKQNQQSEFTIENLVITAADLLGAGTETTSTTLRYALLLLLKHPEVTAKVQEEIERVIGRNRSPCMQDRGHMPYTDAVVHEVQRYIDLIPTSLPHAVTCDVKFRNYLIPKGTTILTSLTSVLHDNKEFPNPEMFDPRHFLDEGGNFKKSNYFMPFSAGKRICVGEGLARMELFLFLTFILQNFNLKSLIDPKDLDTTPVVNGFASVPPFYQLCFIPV

One may read the inhibition as the share of the control response that was lost under treatment. A low value points to little suppression. For orientation: pIC50 means the negative decadic logarithm of the IC50, by convention in mol/L. For `CN(C)C/C=C/C(=O)N1CC2CC(n3nc(-c4ccc(C(=O)Nc5cnccn5)cc4)c4c(N)ncnc43)CC2C1` (stereo not drawn) [Compound 49, (E)-4-(4-amino-1-(2-(4-(dimethylamino)but-2-enoyl)octahydrocyclopenta [c]pyrrol-5-yl)-1H-pyrazolo[3,4-d]pyrimidin-3-yl)-N-(pyrazin-2-yl)benzamide], the inhibition at 10 μM in data set [1], in data set [2], in data set [3], in data set [4], in data set [6] and in data set [7] was under 50% in each case. The pIC50 in data set [5] was 8.60.

As to `Cc1ccnc(N(C)C(=O)c2ccc(-c3nn(C4CC5CN(C(=O)/C=C/CN(C)C)CC5C4)c4ncnc(N)c34)cc2)c1` (stereo not drawn) [Compound 55, (E)-4-(4-amino-1-(2-(4-(dimethylamino)but-2-enoyl)octahydrocyclopenta [c]pyrrol-5-yl)-1H-pyrazolo[3,4-d]pyrimidin-3-yl)-N-methyl-N-(4-methylpyridin-2-yl)benzamide], the inhibition at 10 μM was over 50% in data set [1]; under 50% in data set [2]; over 50% in data set [3]; over 50% in data set [4]; under 50% in data set [6]; over 50% in data set [7]. Further, the pIC50 in data set [5] was 7.10.

As for `C=CC(=O)N1CC2CC(n3nc(-c4ccc(Oc5ccccc5)cc4)c4c(N)ncnc43)CC2C1` (stereo not drawn) [Compound 1, 1-(5-(4-amino-3-(4-phenoxyphenyl)-1H-pyrazolo[3,4-d]pyrimidin-1-yl)hexahydrocyclopenta[c]pyrrol-2(1H)-yl)prop-2-en-1-one], the inhibition at 10 μM in data set [1], in data set [2], in data set [3], in data set [4], in data set [6] and in data set [7] was under 50% throughout. The pIC50 in data set [5] is 8.89.

Turning to `C=CC(=O)N1CC2CC(n3nc(-c4ccc(NC(=O)c5cnccn5)cc4)c4c(N)ncnc43)CC2C1` (stereo not drawn) [Compound 35, N-(4-(1-(2-acryloyloctahydrocyclopenta[c]pyrrol-5-yl)-4-amino-1H-pyrazolo[3,4-d]pyrimidin-3-yl)phenyl)pyrazine-2-carb oxamide], the inhibition at 10 μM in data set [1], in data set [2], in data set [3], in data set [4], in data set [6] and in data set [7] was under 50% throughout. Also, the pIC50 in data set [5] was 8.92.

As for `C=CC(=O)N1CC2CC(n3c(Br)c(-c4ccc(Oc5ccccc5)cc4)c4c(N)ncnc43)CC2C1` (stereo not drawn) [Compound 27, 1-(5-(4-amino-6-bromo-5-(4-phenoxyphenyl)-7H-pyrrolo[2,3-d]pyrimidin-7-yl)hexahydrocyclopenta[c]pyrrol-2(1H)-yl)prop-2-en-1-one], the inhibition at 10 μM in data set [1], in data set [2], in data set [3], in data set [4], in data set [6] and in data set [7] was under 50% throughout. In data set [5], the pIC50 was 8.80.

On to `C=CC(=O)N1CC2CC(n3nc(-c4ccc5c(c4)CCS5)c4c(N)ncnc43)CC2C1` (stereo not drawn) [Compound 7, 1-(5-(4-amino-3-(2,3-dihydrobenzo[b]thiophen-5-yl)-1H-pyrazolo [3,4-d]pyrimidin-1-yl)hexahydrocyclopenta[c]pyrrol-2(1H)-yl)prop-2-en-1-one], for which the inhibition at 10 μM in data set [1] is under 50%; in data set [2], under 50%; in data set [3] it was under 50%; in data set [4], over 50%; in data set [6], under 50%; in data set [7], over 50%. Moreover, the pIC50 in data set [5] was 8.22.

Regarding `C=CC(=O)N1CC2CC(n3nc(-c4ccc(-c5nnc(C)o5)cc4)c4c(N)ncnc43)CC2C1` (stereo not drawn) [Compound 16, 1-(5-(4-amino-3-(4-(5-methyl-1,3,4-oxadiazol-2-yl)phenyl)-1H-pyrazolo[3,4-d]pyrimidin-1-yl)hexahydrocyclopenta[c]pyrrol-2(1H)-yl)prop-2-en-1-one], the inhibition at 10 μM in data set [1], in data set [2], in data set [3], in data set [4], in data set [6] and in data set [7] was under 50% throughout. Moreover, in data set [5], the pIC50 was 8.77.

With `C=CC(=O)N1CC2CC(n3nc(-c4ccc5oc(-c6ccccc6)nc5c4)c4c(N)ncnc43)CC2C1` (stereo not drawn) [Compound 23, 1-(5-(4-amino-3-(2-phenylbenzo[d]oxazol-5-yl)-1H-pyrazolo[3,4-d]pyrimidin-1-yl)hexahydrocyclopenta[c]pyrrol-2(1H)-yl)prop-2-en-1-one], the inhibition at 10 μM was under 50% in data set [1]; under 50% in data set [2]; over 50% in data set [3]; over 50% in data set [4]; under 50% in data set [6]; over 50% in data set [7]. In data set [5], the pIC50 was 7.32.

For the compound `C=CC(=O)N1CC2CC(n3nc(-c4ccc(/C(=N/c5cc(C)ccn5)OC)cc4)c4c(N)ncnc43)CC2C1` (stereo not drawn) [Compound 41, (Z)-methyl 4-(1-(2-acryloyloctahydrocyclopenta[c]pyrrol-5-yl)-4-amino-1H-pyrazolo[3,4-d]pyrimidin-3-yl)-N-(4-methylpyridin-2-yl)benzimidate], the inhibition at 10 μM was under 50% in data set [1]; under 50% in data set [2]; under 50% in data set [3]; under 50% in data set [4]; under 50% in data set [6]; over 50% in data set [7]. The pIC50 in data set [5] is 8.46.

For the compound `C=CC(=O)N1CC2CC(n3nc(-c4ccc(-c5nnc(-c6ccccn6)o5)cc4)c4c(N)ncnc43)CC2C1` (stereo not drawn) [Compound 26, 1-(5-(4-amino-3-(4-(5-(pyridin-2-yl)-1,3,4-oxadiazol-2-yl)phenyl)-1H-pyrazolo[3,4-d]pyrimidin-1-yl)hexahydrocyclopenta[c]pyrrol-2(1H)-yl)prop-2-en-1-one], the inhibition at 10 μM in data set [1], in data set [2], in data set [3], in data set [4], in data set [6] and in data set [7] was under 50% in each case. For the same compound, the pIC50 in data set [5] was 8.96.

Consider `C=CC(=O)N1CC2CC(n3nc(-c4ccc5nc(C)sc5c4)c4c(N)ncnc43)CC2C1` (stereo not drawn) [Compound 5, 1-(5-(4-amino-3-(2-methylbenzo[d]thiazol-6-yl)-1H-pyrazolo[3,4-d]pyrimidin-1-yl)hexahydrocyclopenta[c]pyrrol-2(1H)-yl)prop-2-en-1-one], for which the inhibition at 10 μM is under 50% in data set [1]; under 50% in data set [2]; under 50% in data set [3]; under 50% in data set [4]; under 50% in data set [6]; over 50% in data set [7]. Besides, the negative logarithm of the IC50 (pIC50) in data set [5] was 8.10.

As for `C=CC(=O)N1CC2CC(n3nc(-c4ccc5c(c4)OC(F)(F)O5)c4c(N)ncnc43)CC2C1` (stereo not drawn) [Compound 36, 1-(5-(4-amino-3-(2,2-difluorobenzo[d] [1,3]dioxol-5-yl)-1H-pyrazolo [3,4-d]pyrimidin-1-yl)hexahydrocyclopenta[c]pyrrol-2(1H)-yl)prop-2-en-1-one], the inhibition at 10 μM in data set [1], in data set [2], in data set [3], in data set [4], in data set [6] and in data set [7] was under 50% each time. In addition, in data set [5], the pIC50 is 8.96.
